For 24 compounds, IC50 results are on record in patent US11274091B2 (Dizal (Jiangsu) Pharmaceutical Co., Ltd., priority 2018, dated 2022).

Structures are written as SMILES.

The target of one test is human TRPC6 ion channel (Homo sapiens (Human), UniProt Q9Y210). In words: Inhibition of TRPC6 FLIPR Assay (membrane potential dye, OAG challenge). Particulars: TRPC6-HEK293 cells, OAG at EC80; most potent isolated isomer; mean of minimum 2 experiments. In kind it is cell-based. An excerpt:
(§1) TRPC3 and TRPC6 channel opening causes an influx of predominantly calcium and sodium cations that result in a change in the electrical potential across the cell membrane. This change in membrane potential can be monitored using membrane potential dyes in the following FLIPR™ (Fluorescent Imaging Plate Reader) assays.
TRPC6-HEK293 was purchased from PerkinElmer (PerkinElmer, Product No.: AX-012-C), HEK293 cells were transfected using the pcDNA3.1(+)expression vector containing the coding sequence of the human TRPC6 ion channel. The coding sequence used is identical to coding sequence of GenBank NM_004621 with the exception of 2 synonym variations (t1683c and c2529t). The cells were grown in DMEM+10% fetal bovine serum (FBS) 0.5 mg/ml. Geneticin (ion channel expression selection) as culture medium.
TRPC6 cells were plated at 10K cells/well into 384-well polystyrene plates and then grown for 24 hs at 37° C. plus 5% CO2. After this time the media was aspirated using a Tecan plate washer and then replaced with 40 μL of dye loading buffer (130 mM NaCl, 5 mM KCl, 0.15 mM CaCl2, 1 mM MgCl2, 20 mM HEPES ((4-(2-hydroxyethyl)-1-piperazineethanesulfonic acid)), 5 mM NaHCO3). For TRPC6, a final concentration of 0.5× is used. Cells with membrane potential dye were then incubated for 30 mins at room temperature prior to beginning the experiments.
(§2) To test the effects of compounds on TRPC6 activity, compounds were first diluted in 100% DMSO to 3× the final concentration to be used in the experiments. Typical dose-response experiments ranged from 10 μM (top concentration) to 0.5 nM (lowest concentration). Ten microliters of 0.5× compound in 0.5% DMSO were added to 40 μL of cells incubated with membrane potential dye. Compound addition was performed on a FLIPRTetra or a FLIPR 384 (MDS Analytical Technologies, Molecular Devices, Sunnyvale, Calif., 94089, USA). After a 400 second incubation with compound, 12.5 of OAG (1-oleoyl-2-acetyl-sn-glycerol (OAG), Sigma, Gillingham, Dorset, SP8 4XT Cat #O6754-10 MG) was added at 5× the EC80 (typical EC80 for TRPC6=3 μM final). The OAG challenge is designed to measure the inhibitory activity of compounds on receptor-operated TRPC6 activation.
(§3) All data was normalized to low controls (buffer alone) or high controls (OAG EC100). Data was analyzed using an XC50 curve fitting module and reported as pIC50 or IC50 values. The values are averaged to determine a mean value, for a minimum of 2 experiments.

The target of a further test is human TRPC3 ion channel (Homo sapiens (Human), UniProt Q13507). In words: Inhibition of TRPC3 FLIPR Assay (membrane potential dye, OAG challenge). In kind it is cell-based. Particulars: TRPC3 transfected AD293 cells, OAG at EC80; most potent isolated isomer; mean of minimum 2 experiments.
Sequence of human TRPC3 ion channel (Q13507 whole entry): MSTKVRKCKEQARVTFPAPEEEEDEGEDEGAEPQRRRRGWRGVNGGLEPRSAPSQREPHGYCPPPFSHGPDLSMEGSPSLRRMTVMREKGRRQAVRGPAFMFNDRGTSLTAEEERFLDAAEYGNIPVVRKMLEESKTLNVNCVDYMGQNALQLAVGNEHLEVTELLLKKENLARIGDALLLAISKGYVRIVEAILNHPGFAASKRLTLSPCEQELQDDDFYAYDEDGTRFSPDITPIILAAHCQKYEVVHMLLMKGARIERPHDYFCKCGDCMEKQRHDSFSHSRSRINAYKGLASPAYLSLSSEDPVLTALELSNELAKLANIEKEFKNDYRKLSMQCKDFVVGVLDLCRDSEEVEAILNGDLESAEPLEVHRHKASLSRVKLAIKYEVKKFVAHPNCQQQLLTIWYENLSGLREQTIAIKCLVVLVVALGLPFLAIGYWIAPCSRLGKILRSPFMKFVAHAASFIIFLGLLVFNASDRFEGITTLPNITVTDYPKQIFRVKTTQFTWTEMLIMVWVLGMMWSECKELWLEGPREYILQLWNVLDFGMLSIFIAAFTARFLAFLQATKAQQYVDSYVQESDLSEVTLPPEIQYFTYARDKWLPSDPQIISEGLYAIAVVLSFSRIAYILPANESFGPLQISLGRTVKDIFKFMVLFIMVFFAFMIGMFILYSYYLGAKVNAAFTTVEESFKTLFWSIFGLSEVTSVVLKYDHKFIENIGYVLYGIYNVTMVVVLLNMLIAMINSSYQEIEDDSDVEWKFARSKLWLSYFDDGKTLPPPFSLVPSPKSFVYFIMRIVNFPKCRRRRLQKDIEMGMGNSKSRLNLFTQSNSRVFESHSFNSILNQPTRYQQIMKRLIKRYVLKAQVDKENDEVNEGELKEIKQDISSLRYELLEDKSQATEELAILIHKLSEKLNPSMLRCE
From the text: as §1
AD293 cells were transfected using the PLVX-puro lentivirus vector containing the coding sequence of the human TRPC3 ion channel. Puromycin-resistant cells were selected by treating with […] puromycin for two weeks. Monoclonal cells were obtained by limiting dilution and compared for their response to OAG in a membrane potential assay. The cells were grown in DMEM+10% fetal bovine serum (FBS)+1 μg/mL puromycin as culture medium.
TRPC3 cells were plated at 9K/well into 384-well polystyrene plates. Cells were grown for 24 h at 37° C. plus 5% CO2 after which media was aspirated using a Tecan plate washer and replaced with 40 μL of dye loading buffer (130 mM NaCl, 5 mM KCl, 0.15 mM CaCl2, 1 mM MgCl2, 20 mM HEPES ((4-(2-hydroxyethyl)-1-piperazineethanesulfonic acid)), 5 mM NaHCO3). For TRPC3 a final concentration of 0.5× membrane potential dye (Molecular Devices Membrane Blue, FLIPR Membrane Potential Assay Kit (bulk), Product #R8034(BLUE), Molecular Devices, Sunnyvale, Calif., 94089, USA) was used. Cells with membrane potential dye were then incubated for 30 mins at room temperature prior to beginning the experiments.
as §2, with “TRPC3” for “TRPC6”, “5×” for “0.5×”, “Technologies).” for “Technologies, Molecular Devices, Sunnyvale, Calif., 94089, USA).”, “12.5 μL” for “12.5”, “OAG” for “OAG (1-oleoyl-2-acetyl-sn-glycerol (OAG), Sigma, Gillingham, Dorset, SP8 4XT Cat #O6754-10 MG)”, “TRPC3=2” for “TRPC6=3”
as §3

Sequence of human TRPC6 ion channel (Q9Y210 whole entry): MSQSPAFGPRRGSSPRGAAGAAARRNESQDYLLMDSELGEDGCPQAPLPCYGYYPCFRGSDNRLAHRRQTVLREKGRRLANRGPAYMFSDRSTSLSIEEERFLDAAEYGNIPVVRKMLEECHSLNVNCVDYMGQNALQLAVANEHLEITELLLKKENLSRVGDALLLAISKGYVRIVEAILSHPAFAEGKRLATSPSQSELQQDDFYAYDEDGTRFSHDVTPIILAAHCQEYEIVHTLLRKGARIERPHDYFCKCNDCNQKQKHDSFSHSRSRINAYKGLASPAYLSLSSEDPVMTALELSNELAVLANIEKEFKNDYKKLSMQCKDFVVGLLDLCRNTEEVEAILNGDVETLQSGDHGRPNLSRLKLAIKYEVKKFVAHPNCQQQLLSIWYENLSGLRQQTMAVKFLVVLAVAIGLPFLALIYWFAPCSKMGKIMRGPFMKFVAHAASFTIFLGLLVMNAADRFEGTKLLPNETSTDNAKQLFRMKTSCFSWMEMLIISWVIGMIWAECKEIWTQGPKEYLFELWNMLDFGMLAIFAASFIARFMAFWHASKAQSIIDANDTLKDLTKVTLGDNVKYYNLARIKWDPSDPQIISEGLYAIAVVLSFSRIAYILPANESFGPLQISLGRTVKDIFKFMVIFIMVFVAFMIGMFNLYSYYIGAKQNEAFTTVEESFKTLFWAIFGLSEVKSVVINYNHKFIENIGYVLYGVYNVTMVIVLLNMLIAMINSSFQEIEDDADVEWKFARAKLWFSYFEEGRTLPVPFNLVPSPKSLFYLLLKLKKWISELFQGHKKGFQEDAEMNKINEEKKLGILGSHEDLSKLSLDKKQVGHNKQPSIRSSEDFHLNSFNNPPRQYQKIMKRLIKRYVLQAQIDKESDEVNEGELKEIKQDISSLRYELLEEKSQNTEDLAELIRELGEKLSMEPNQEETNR

As to `N#Cc1ccc(OC2CC(c3ccc(F)cc3)CC2N2CCC[C@@H](N)C2)nc1` (single isomer, unassigned) [Example 26], the results for the IC50 at human TRPC6 ion channel and against human TRPC3 ion channel were 9.51 nM and 25.5 nM, respectively.

Regarding `NC1CCCN(C2CC(c3ccc(F)cc3)CC2n2nccn2)C1` (stereo not drawn) [Example 1, 1-[4-(4-fluorophenyl)-2-(triazol-2-yl)cyclopentyl]piperidin-3-amine], the IC50 (usually the concentration needed to halve the response being measured) against human TRPC6 ion channel stood at 3.37 nM; against human TRPC3 ion channel, 17.7 nM.

With `N#Cc1cnn(C2CC(c3ccc(F)cc3)CC2N2CCCC(N)C2)c1` (stereo not drawn) [Example 2, 1-[2-(3-amino-1-piperidyl)-4-(4-fluorophenyl)cyclopentyl]pyrazole-4-carbonitrile], the IC50 at human TRPC6 ion channel came out at 7.97 nM; on human TRPC3 ion channel, 8.31 nM.

Turning to `N#Cc1ccn(C2CC(c3ccc(F)cc3)CC2N2CCCC(N)C2)n1` (stereo not drawn) [Example 3, 1-[2-(3-amino-1-piperidyl)-4-(4-fluorophenyl)cyclopentyl]pyrazole-3-carbonitrile], the figures for the IC50 at human TRPC6 ion channel and against human TRPC3 ion channel were less than 19.9 nM and 46.4 nM, respectively.

As for `N#Cc1ccn(C2CC(c3ccc(F)cc3)CC2N2CCCC(N)C2)c1` (stereo not drawn) [Example 4, 1-[2-(3-amino-1-piperidyl)-4-(4-fluorophenyl)cyclopentyl]pyrrole-3-carbonitrile], the IC50 against human TRPC6 ion channel came out at 5.31 nM; against human TRPC3 ion channel, 5.39 nM.

In the case of `N#Cc1cn(C2CC(c3ccc(F)cc3)CC2N2CCCC(N)C2)nn1` (stereo not drawn) [Example 5, 1-[2-(3-amino-1-piperidyl)-4-(4-fluorophenyl)cyclopentyl]triazole-4-carbonitrile], the IC50 against human TRPC6 ion channel is 3.78 nM; against human TRPC3 ion channel, 4.28 nM.

Consider `N#Cc1cnn(C2CC(c3ccc(F)cc3)CC2N2CC(N)CC(F)C2)c1` (stereo not drawn) [Example 6, 1-[2-(3-amino-5-fluoro-1-piperidyl)-4-(4-fluorophenyl)cyclopentyl]pyrazole-4-carbonitrile], for which the IC50 was found to be 4.06 nM against human TRPC6 ion channel and 6.22 nM against human TRPC3 ion channel.

In the case of `N#Cc1cnn(C2CC(c3ccc(F)cc3)CC2N2CCC(F)(F)C(N)C2)c1` (stereo not drawn) [Example 7, 1-[2-(3-amino-4,4-difluoro-1-piperidyl)-4-(4-fluorophenyl)cyclopentyl]pyrazole-4-carbonitrile], the IC50 at human TRPC6 ion channel was 16.2 nM; on human TRPC3 ion channel, 17.5 nM.

As for `NC1CCCN(C2CC(c3ccc(F)cc3)CC2n2cccn2)C1` (stereo not drawn) [Example 8, 1-[4-(4-fluorophenyl)-2-pyrazol-1-yl-cyclopentyl]piperidin-3-amine], the values for the IC50 against human TRPC6 ion channel and at human TRPC3 ion channel were 2.8 nM and 7.97 nM, respectively.

Take `NC1CC(F)CN(C2CC(c3ccc(F)cc3)CC2n2cccn2)C1` (stereo not drawn) [Example 9, 5-fluoro-1-[4-(4-fluorophenyl)-2-pyrazol-1-yl-cyclopentyl]piperidin-3-amine]: the IC50 stood at 3.4 nM on human TRPC6 ion channel and 6.64 nM against human TRPC3 ion channel.

Turning to `N[C@@H]1C[C@@H](F)CN([C@@H]2C[C@H](c3ccc(F)cc3)C[C@H]2n2cncn2)C1` [Example 10, (3R,5R)-5-fluoro-1-[(1R,2R,4S)-4-(4-fluorophenyl)-2-(1,2,4-triazol-1-yl)cyclopentyl]piperidin-3-amine], the results for the IC50 on human TRPC6 ion channel and against human TRPC3 ion channel were 29.8 nM and 16 nM, respectively.

For `NC1CC(F)CN(C2CC(c3ccc(F)cc3)CC2n2ncnn2)C1` (stereo not drawn) [Example 11, 5-fluoro-1-[4-(4-fluorophenyl)-2-(tetrazol-2-yl)cyclopentyl]piperidin-3-amine], the IC50 is 10.6 nM against human TRPC6 ion channel and 4.03 nM against human TRPC3 ion channel.

As to `NC1CCCN(C2CC(c3ccc(F)cc3)CC2n2ncnn2)C1` (stereo not drawn) [Example 12, 1-[4-(4-fluorophenyl)-2-(tetrazol-2-yl)cyclopentyl]piperidin-3-amine], the IC50 worked out at 26.7 nM against human TRPC6 ion channel and 7.55 nM on human TRPC3 ion channel.

As for `N#Cc1ncn(C2CC(c3ccc(F)cc3)CC2N2CCCC(N)C2)n1` (stereo not drawn) [Example 13, 1-[2-(3-amino-1-piperidyl)-4-(4-fluorophenyl)cyclopentyl]-1,2,4-triazole-3-carbonitrile], the results for the IC50 against human TRPC6 ion channel and against human TRPC3 ion channel were 7.1 nM and 14.3 nM, respectively.

In the case of `N#Cc1ccc(OC2CC(c3ccc(F)c(O)c3)CC2N2CCCC(N)C2)cc1` (stereo not drawn) [Example 14, 4-[2-(3-amino-1-piperidyl)-4-(4-fluoro-3-hydroxy-phenyl)cyclopentoxy]benzonitrile], the IC50 against human TRPC6 ion channel worked out at 17.4 nM; on human TRPC3 ion channel, 58.8 nM.

On to `COc1cc(C2CC(Oc3ccc(C#N)cc3)C(N3CCCC(N)C3)C2)ccc1F` (stereo not drawn) [Example 15, 4-[2-(3-amino-1-piperidyl)-4-(4-fluoro-3-methoxy-phenyl)cyclopentoxy]benzonitrile], for which the IC50 against human TRPC6 ion channel amounted to 9.51 nM; against human TRPC3 ion channel, 22.5 nM.

For `N#Cc1ccc(OC2CC(c3cccc(F)c3)CC2N2CCCC(N)C2)c(Cl)c1` (stereo not drawn) [Example 16, 4-[2-(3-amino-1-piperidyl)-4-(3-fluorophenyl)cyclopentoxy]-3-chloro-benzonitrile], the concentration for half-maximal inhibition (IC50) on human TRPC6 ion channel was determined as 19.3 nM; on human TRPC3 ion channel it was 69.5 nM.

As for `N#Cc1ccc(OC2CC(c3ccc(F)cc3)CC2N2CCC(F)(F)C(N)C2)cc1` (stereo not drawn) [Example 17, 4-[2-(3-amino-4,4-difluoro-1-piperidyl)-4-(4-fluorophenyl)cyclopentoxy]benzonitrile], the IC50 at human TRPC6 ion channel was 20.7 nM; against human TRPC3 ion channel, 46.1 nM.

As for `N#Cc1ccc(OC2CC(c3ccc(F)cc3)CC2N2CC(N)CC(F)(F)C2)cc1` (stereo not drawn) [Example 18, 4-[2-(5-amino-3,3-difluoro-1-piperidyl)-4-(4-fluorophenyl)cyclopentoxy]benzonitrile], the IC50 came out at 31.1 nM against human TRPC6 ion channel and 42.5 nM against human TRPC3 ion channel.

`N#Cc1ccc(OC2CC(c3ccc(F)cc3)CC2N2CCCC(N)C2)cc1F` (stereo not drawn) [Example 19, 4-[2-(3-amino-1-piperidyl)-4-(4-fluorophenyl)cyclopentoxy]-2-fluoro-benzonitrile]: the values for the IC50 against human TRPC6 ion channel and on human TRPC3 ion channel were 25.1 nM and 64.5 nM, respectively.

Regarding `N#Cc1ccccc1OC1CC(c2ccccc2)CC1N1CCCC(N)C1` (stereo not drawn) [Example 20, 2-[2-(3-amino-1-piperidyl)-4-phenyl-cyclopentoxy]benzonitrile], the IC50 stood at 14.1 nM against human TRPC6 ion channel and 38.8 nM against human TRPC3 ion channel.

Take `N#Cc1ccc(OC2CC(c3ccccc3)CC2N2CCCC(N)C2)c(Cl)c1` (stereo not drawn) [Example 21, 4-[2-(3-amino-1-piperidyl)-4-phenyl-cyclopentoxy]-3-chloro-benzonitrile]: the IC50 on human TRPC6 ion channel turned out to be 17.4 nM; at human TRPC3 ion channel it was 72.3 nM.

Take `Cc1cc(C#N)nnc1OC1CC(c2ccc(F)cc2)CC1N1CC(N)CC(F)C1` (stereo not drawn) [Example 22, 6-[2-(3-amino-5-fluoro-1-piperidyl)-4-(4-fluorophenyl)cyclopentoxy]-5-methyl-pyridazine-3-carbonitrile]: the results for the IC50 at human TRPC6 ion channel and against human TRPC3 ion channel were 28.8 nM and 118 nM, respectively.

On to `NC1CCCN(C2CC(c3ccc(F)cc3)CC2Oc2nnccc2Cl)C1` (stereo not drawn) [Example 23, 1-[2-(4-chloropyridazin-3-yl)oxy-4-(4-fluorophenyl)cyclopentyl]piperidin-3-amine], for which the IC50 against human TRPC6 ion channel was 6.56 nM; against human TRPC3 ion channel it was 11.3 nM.
